Data reported in patent US12187713B2, “Immunomodulators, compositions and methods thereof” (Betta Pharmaceuticals Co., Ltd, priority 2019, dated 2025).

What was measured:
[1] = target: PD-1/PD-L1 (Homo sapiens (Human), UniProt Q9NZQ7); assay: PD-1/PD-L1 Binding Assay (Alphascreen)
In short: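 PD-1/PD-L1 binding detected by anti-6×His acceptor and streptavidin donor beads after 120 min in the dark at 25 °C. Beforehand, the two proteins were incubated 15 min at 25 °C with inhibitor at 0.015–300 nM (1% DMSO). IC50 comes from a log concentration–response curve.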

[2] = Pharmacokinetic Assay, single oral dose 5 mg/kg (Table 12); format: in vivo; details: mouse, plasma concentration, C57 female mice, single oral dose 5 mg/kg
In short: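 Adult female C57 mice (n=3) got one intragastric dose of 5 mg/kg in 15% DMSO, 10% Kolliphor HS 15, 75% saline. Retro-orbital blood was taken at 30 min, 2 h and 4 h into K2-EDTA. Plasma levels were measured by LC-MS/MS.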

PD-1/PD-L1, sequence (Q9NZQ7 19-238): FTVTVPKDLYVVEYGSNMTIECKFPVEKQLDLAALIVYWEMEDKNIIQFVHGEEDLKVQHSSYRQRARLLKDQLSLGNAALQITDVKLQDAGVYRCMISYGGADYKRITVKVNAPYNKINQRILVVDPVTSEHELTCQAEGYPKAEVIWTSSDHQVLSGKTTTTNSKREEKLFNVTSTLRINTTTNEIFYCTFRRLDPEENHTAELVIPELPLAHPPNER

Row | SMILES | IC50 ([1]; range symbols) | concentration at 0.5 h [2] | concentration at 2 h [2] | concentration at 4 h [2] | IC50 ([1]; numeric values)
1 | Cc1c(COc2cc(OCc3cncc(OC(F)F)c3)c(CN3CCC(F)C3)cc2Cl)cccc1-c1cccc(-c2nc3cc(CN4CCC[C@H]4C(=O)O)c(OC(F)F)cc3o2)c1C (stereo partly drawn) [Example 209, ((2-(3′-((2-chloro-5-((5-(difluoromethoxy)pyridin-3-yl)methoxy)-4-((3-fluoropyrrolidin-1-yl)methyl)phenoxy)methyl)-2,2′-dimethyl-[1,1′-biphenyl]-3-yl)-6-(difluoromethoxy)benzo[d]oxazol-5-yl)methyl)-L-proline] |  | 21.4 ng/mL | 54.9 ng/mL | 19.2 ng/mL | 1.4 nM
2 | COC1CCN(Cc2ccc(-c3cccc(-c4cccc(-c5nc6cc(CN7CCC[C@H]7C(=O)O)c(OC(F)F)cc6o5)c4C)c3C)cc2)C1 (stereo partly drawn) [Example 227, ((6-(difluoromethoxy)-2-(4″-((3-methoxypyrrolidin-1-yl)methyl)-2,2′-dimethyl-[1,1′:3′,1″-terphenyl]-3-yl)benzo[d]oxazol-5-yl)methyl)-L-proline] |  | 36.9 ng/mL | 149 ng/mL | 114 ng/mL | 4.1 nM
3 | Cc1c(-c2nc3cc(CN4CCC[C@H]4C(=O)O)c(OC(F)F)cc3o2)cccc1-c1cccc(-c2ccc(CN3CCCC3)cc2Cl)c1C [Example 231, ((2-(2″-chloro-2,2′-dimethyl-4″-(pyrrolidin-1-ylmethyl)-[1,1′:3′,1″-terphenyl]-3-yl)-6-(difluoromethoxy)benzo[d]oxazol-5-yl)methyl)-L-proline] |  | 36.9 ng/mL | 160 ng/mL | 156 ng/mL | 78 nM
4 | Cc1c(-c2ccc(CN3CCCC3)c(C(F)(F)F)c2)cccc1-c1cccc(-c2nc3cc(CN4CCC[C@H]4C(=O)O)c(OC(F)F)cc3o2)c1C [Example 233, ((6-(difluoromethoxy)-2-(2,2′-dimethyl-4″- (pyrrolidin-1-ylmethyl)-3″-(trifluoromethyl)-[1,1′:3′,1″-terphenyl]-3-yl)benzo[d]oxazol-5-yl)methyl)-L-proline] |  | 143 ng/mL | 322 ng/mL | 296 ng/mL | 41 nM
5 | Cc1c(-c2ccc(CN3CC(C)(C)C3)c(F)c2)cccc1-c1cccc(-c2nc3cc(CN4CCC[C@H]4C(=O)O)c(OC(F)F)cc3o2)c1C [Example 237, ((6-(difluoromethoxy)-2-(4″-((3,3-dimethylazetidin-1-yl)methyl)-3″-fluoro-2,2′-dimethyl-[1,1′:3′,1″-terphenyl]-3-yl)benzo[d]oxazol-5-yl)methyl)-L-proline] |  | 58.5 ng/mL | 178 ng/mL | 186 ng/mL | 2.7 nM
6 | Cc1c(-c2ccc(CN3Cc4ccccc4C3)c(F)c2)cccc1-c1cccc(-c2nc3cc(CN4CCC[C@H]4C(=O)O)c(OC(F)F)cc3o2)c1C [Example 241, ((6-(difluoromethoxy)-2-(3″-fluoro-4″- (isoindolin-2-ylmethyl)-2,2′-dimethyl-[1,1′:3′,1″-terphenyl]-3-yl)benzo[d]oxazol-5-yl)methyl)proline] | 5 to 50 nM | 102 ng/mL | 234 ng/mL | 294 ng/mL | 
7 | Cc1c(-c2ccc(CN3CCC(F)C3)cc2)cccc1-c1cccc(-c2nc3cc(CN4CCC[C@H]4C(=O)O)c(OC(F)F)cc3o2)c1C (stereo partly shown) [Example 242, ((6-(difluoromethoxy)-2-(4″-((3-fluoropyrrolidin-1-yl)methyl)-2,2′-dimethyl-[1,1′:3′,1″-terphenyl]-3-yl)benzo[d]oxazol-5-yl)methyl)proline] | 0.1 to 5 nM | 90.4 ng/mL | 223 ng/mL | 202 ng/mL | 
8 | Cc1c(-c2ccc(CN3CCCC3)c(C#N)c2)cccc1-c1cccc(-c2nc3cc(CN4CCC[C@H]4C(=O)O)c(OC(F)F)cc3o2)c1C [Example 245, ((2-(3″-cyano-2,2′-dimethyl-4″-(pyrrolidin-1-ylmethyl)-[1,1′:3′,1″-terphenyl]-3-yl)-6-(difluoromethoxy)benzo[d]oxazol-5-yl)methyl)-L-proline] |  | 101 ng/mL | 237 ng/mL | 191 ng/mL | 3.8 nM
9 | COc1nc(-c2cccc(-c3cccc(-c4nc5cc(CN6CCC[C@H]6C(=O)O)c(OC(F)F)cc5o4)c3C)c2C)ccc1CN1CC[C@H](C)C1 [Example 246, ((6-(difluoromethoxy)-2-(3′-(6-methoxy-5-(((S)-3-methylpyrrolidin-1-yl)methyl)pyridin-2-yl)-2,2′-dimethyl-[1,1′-biphenyl]-3-yl)benzo[d]oxazol-5-yl)methyl)-L-proline] |  | 87.2 ng/mL | 261 ng/mL | 285 ng/mL | 1.8 nM
10 | Cc1c(-c2ccc(CN3CC[C@@H](c4ccccc4)C3)c(F)c2)cccc1-c1cccc(-c2nc3cc(CN4CCC[C@H]4C(=O)O)c(OC(F)F)cc3o2)c1C [Example 248, ((6-(difluoromethoxy)-2-(3″-fluoro-2,2′-dimethyl-4″-(((S)-3-phenylpyrrolidin-1-yl)methyl)-[1,1′:3′,1″-terphenyl]-3-yl)benzo[d]oxazol-5-yl)methyl)proline] | 5 to 50 nM | 89 ng/mL | 271 ng/mL | 369 ng/mL | 
11 | Cc1c(-c2ccc(CN3CC[C@H](COCc4ccccc4)C3)c(F)c2)cccc1-c1cccc(-c2nc3cc(CN4CCC[C@H]4C(=O)O)c(OC(F)F)cc3o2)c1C [Example 252, ((2-(4″-(((S)-3-((benzyloxy)methyl)pyrrolidin-1-yl)methyl)-3″-fluoro-2,2′-dimethyl-[1,1′:3′,1″- terphenyl]-3-yl)-6-(difluoromethoxy)benzo[d]oxazol-5-yl)methyl)proline] | 0.1 to 5 nM | 694 ng/mL | 2870 ng/mL | 4150 ng/mL | 
12 | COc1nc(-c2cccc(-c3cccc(-c4nc5cc(CN6CCC[C@H]6C(=O)O)c(OC(F)F)cc5o4)c3C)c2C)ccc1CN1CC[C@@H](C)C1 [Example 272, ((6-(difluoromethoxy)-2-(3′-(6-methoxy-5-(((R)-3-methylpyrrolidin-1-yl)methyl)pyridin-2-yl)-2,2′-dimethyl-[1,1′-biphenyl]-3-yl)benzo[d]oxazol-5-yl)methyl)-L-proline] |  | 66.1 ng/mL | 198 ng/mL | 141 ng/mL | 1.9 nM
13 | COc1nc(-c2cccc(-c3cccc(-c4nc5cc(CN6CCC[C@H]6C(=O)O)c(OC(F)F)cc5o4)c3C)c2C)ccc1CNCC1CCC(=O)N1 (stereo partly drawn) [Example 276, ((6-(difluoromethoxy)-2-(3′-(6-methoxy-5-((((5-oxopyrrolidin-2-yl)methyl)amino)methyl)pyridin-2-yl)-2,2′-dimethyl-[1,1′-biphenyl]-3-yl)benzo[d]oxazol-5-yl)methyl)-L-proline] | 0.1 to 5 nM | 131 ng/mL | 291 ng/mL | 238 ng/mL | 

More lines, now with the values ahead:

Row | IC50 ([1]; range symbols) | concentration at 0.5 h [2] | concentration at 2 h [2] | concentration at 4 h [2] | IC50 ([1]; numeric values) | SMILES
14 | > 50 nM | 428 ng/mL | 792 ng/mL | 527 ng/mL |  | Cc1c(-c2nc3c(o2)CCN(CC(F)F)C3)cccc1-c1cccc(-c2nc3cc(CN4CCC[C@H]4C(=O)O)c(OC(F)F)cc3o2)c1C [Example 201, ((2-(3′-(5-(2,2-difluoroethyl)-4,5,6,7-tetrahydrooxazolo[4,5-c]pyridin-2-yl)-2,2′-dimethyl-[1,1′-biphenyl]-3-yl)-6-(difluoromethoxy)benzo[d]oxazol-5-yl)methyl)proline]
15 |  | 819 ng/mL | 1030 ng/mL | 833 ng/mL | 12 nM | Cc1c(-c2nc3c(o2)CCOC3)cccc1-c1cccc(-c2nc3cc(CN4CCC[C@H]4C(=O)O)c(OC(F)F)cc3o2)c1C [Example 203, ((6-(difluoromethoxy)-2-(3′-(6,7-dihydro-4H-pyrano[3,4-d]oxazol-2-yl)-2,2′-dimethyl-[1,1′-biphenyl]-3-yl)benzo[d]oxazol-5-yl)methyl)proline]
16 | 0.1 to 5 nM | 740 ng/mL | 872 ng/mL | 820 ng/mL |  | Cc1c(-c2nc3c(o2)CCC3)cccc1-c1cccc(-c2nc3cc(CN4CCC[C@H]4C(=O)O)c(OC(F)F)cc3o2)c1C [Example 204, ((6-(difluoromethoxy)-2-(3′-(5,6-dihydro-4H-cyclopenta[d]oxazol-2-yl)-2,2′-dimethyl-[1,1′-biphenyl]-3-yl)benzo[d]oxazol-5-yl)methyl)proline]
17 | 0.1 to 5 nM | 1000 ng/mL | 1440 ng/mL | 1420 ng/mL |  | Cc1c(-c2nc3c(o2)CCCC3)cccc1-c1cccc(-c2nc3cc(CN4CCC[C@H]4C(=O)O)c(OC(F)F)cc3o2)c1C [Example 205, ((6-(difluoromethoxy)-2-(2,2′-dimethyl-3′-(4,5,6,7-tetrahydrobenzo[d]oxazol-2-yl)-[1,1′-biphenyl]-3-yl)benzo[d]oxazol-5-yl)methyl)proline]
18 |  | 42.3 ng/mL | 199 ng/mL | 181 ng/mL | 4.7 nM | Cc1c(-c2nc3cc(CN4CCC[C@H]4C(=O)O)c(OC(F)F)cc3o2)cccc1-c1cccc(-c2ccc(CN3CCCC3)cc2F)c1C [Example 253, ((6-(difluoromethoxy)-2-(2″-fluoro-2,2′-dimethyl-4″-(pyrrolidin-1-ylmethyl)-[1,1′:3′,1″- terphenyl]-3-yl)benzo[d]oxazol-5-yl)methyl)-L-proline]
19 |  | 33.6 ng/mL | 171 ng/mL | 113 ng/mL | 5.7 nM | Cc1c(-c2nc3cc(CN4CCC[C@H]4C(=O)O)c(OC(F)F)cc3o2)cccc1-c1cccc(-c2ccc(CN3CCCC3)s2)c1C [Example 280, ((6-(difluoromethoxy)-2-(2,2′-dimethyl-3′-(5-(pyrrolidin-1-ylmethyl)thiophen-2-yl)-[1,1′-biphenyl]-3-yl)benzo[d]oxazol-5-yl)methyl)-L-proline]
